Each structure is given as a SMILES string.

By IC50 is commonly meant the concentration at which inhibition is half-maximal. As a reminder, the EC50 is the concentration giving half of the maximal effect.

The target in one assay is human plasma kallikrein (Homo sapiens (Human), UniProt P03952). Briefly: In vitro enzyme inhibition of human plasma kallikrein (PFR-AMC cleavage). The format is biochemical. Particulars: Pro-Phe-Arg-AMC substrate, 37° C., read-out: hPK IC50. The gist of the method:
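Human plasma kallikrein and compound, diluted in 50 mM Tris-HCl pH 7.5, 150 mM NaCl, 0.01% Triton X-100, preincubated 5 min at 37 °C before PFR-AMC was added.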

The target of assay [1] is cellular kallikrein activity (Homo sapiens (Human), UniProt P03952). Description: In vitro cellular assay (contact assay): kallikrein activity in ellagic acid-activated human plasma, Z-FR-2-AMC substrate. In kind it is biochemical. Particulars: human plasma activated with ellagic acid, 37° C. How it is done: The ability of the compounds disclosed herein to inhibit cellular kallikrein activity was quantified and the respective EC50 value was determined.
Sequence of cellular kallikrein activity (P03952 391-638): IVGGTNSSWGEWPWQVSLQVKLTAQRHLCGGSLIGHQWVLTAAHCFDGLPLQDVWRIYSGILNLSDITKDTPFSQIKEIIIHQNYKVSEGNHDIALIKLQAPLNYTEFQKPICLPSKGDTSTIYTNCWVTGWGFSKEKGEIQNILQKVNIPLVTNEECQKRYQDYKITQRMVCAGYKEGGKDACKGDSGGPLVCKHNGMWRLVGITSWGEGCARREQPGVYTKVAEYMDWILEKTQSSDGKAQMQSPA
Sequence of cellular kallikrein activity (P03952 20-390 partner): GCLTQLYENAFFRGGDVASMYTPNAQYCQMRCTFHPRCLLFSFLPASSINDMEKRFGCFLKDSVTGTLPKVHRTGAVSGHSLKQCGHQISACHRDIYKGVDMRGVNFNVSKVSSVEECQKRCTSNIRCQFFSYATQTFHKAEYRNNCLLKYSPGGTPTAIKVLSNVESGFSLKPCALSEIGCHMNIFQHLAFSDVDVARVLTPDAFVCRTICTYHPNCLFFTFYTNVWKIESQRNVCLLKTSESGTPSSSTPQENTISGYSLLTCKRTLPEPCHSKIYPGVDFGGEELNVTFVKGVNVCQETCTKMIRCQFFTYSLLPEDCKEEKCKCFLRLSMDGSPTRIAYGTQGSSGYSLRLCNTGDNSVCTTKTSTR
All dilutions were prepared in an assay buffer comprising 50 mM Tris-HCl pH 7.2, 150 mM NaCl, and 0.01% Triton X-100.
The ten solutions of the test compounds, prepared by serial dilution, were further diluted 50-fold in the assay buffer.
Human plasma is thawed on ice and centrifuged for 15 min at 4° C. to remove platelets. A 1 mM stock solution of ellagic acid is diluted to 8 μM and mixed with human plasma, after removing platelets, at a ratio of 1:0.8.
A 22.5 μL volume of the final mixture of human plasma and ellagic acid was added to a 96-well microwell plate and the plate was incubated for 15 min at 37° C.
The CINH inhibitor at various concentrations, prepared by serial dilutions as described above, were added to the inhibitor control wells. […] Each CINH concentration is tested in duplicates.
The test compounds at various concentrations, also prepared by serial dilutions as described above, are added to the test wells. […] Each test compound concentration was tested in duplicates.
In addition to the inhibitor control and test wells, the 96 well assay plate includes positive control wells which contained the mixture of human plasma and ellagic acid without C1NH inhibitor or test compounds, and background wells which contained neither the mixture of human plasma and ellagic acid nor the test compounds. The total volume of liquid in positive control and background wells was brought up to 35 μL, using the assay buffer.
The assay plate containing C1NH inhibitors and test compounds mixed with human plasma and ellagic acid and appropriate controls was incubated at 37° C. for 5 min. […] The reagents were mixed well by shaking the plate gently for 30 sec.
The enzyme reaction was quantified by immediate kinetic reading of the assay plate using excitation/emission wavelengths of 330 nm/440 nm respectively. Fluorescence intensity was recorded for 60 min, using a time interval of 43 sec.
The inhibition activity of the test compounds were evaluated using the EC50 values, calculated according to the dose-response curve of the test compounds, fitted using the “log(inhibitor)−response (variable slope)” equation in GraphPadPrism software (GraphPad Software, Inc.).
The percentage inhibition was calculated using the following equation:
[formula] where, Mean (BG) is the average value of the fluorescence intensity of the background wells and Mean (PC) is the average value of the fluorescence intensity of the positive control wells.
Table 4 provides the EC50 values of various compounds disclosed herein.

Sequence of human plasma kallikrein (P03952 391-638): as the sequence (P03952 391-638) above
Sequence of human plasma kallikrein (P03952 20-390 partner): as the sequence (P03952 20-390 partner) above

As for `CC(C)(O)c1cc(Cc2cc(C(=O)NCc3ccc4[nH]cc(Cl)c4c3F)ccn2)cc2cc(Cl)cnc12` [Example 222, N-((3-chloro-4-fluoro-1H-indol-5-yl)methyl)-2-((3-chloro-8-(2-hydroxypropan-2-yl)quinolin-6-yl)methyl)isonicotinamide], at human plasma kallikrein, the IC50 is below 100 nM. For the same compound, the EC50 in assay [1] was 100 to 1000 nM.
For `Cc1cc(CN)nc(C)c1CNC(=O)c1ccnc(Cc2ccc3ncc(Cl)cc3c2)c1` [Example 171, N-((6-(aminomethyl)-2,4-dimethylpyridin-3-yl)methyl)-2-((3-chloroquinolin-6-yl)methyl)isonicotinamide], in that order: below 100 nM and 100 to 1000 nM.
For `Cc1cc(N)nc(C)c1CNC(=O)c1ccnc(Cc2cc3cc(Cl)cnc3cn2)c1` [Example 148, N-((6-amino-2,4-dimethylpyridin-3-yl)methyl)-2-((3-chloro-1,7-naphthyridin-6-yl)methyl)isonicotinamide], in that order: below 100 nM and below 100 nM.
For `O=C(NCc1cc2c(Cl)c[nH]c2cc1F)c1ccnc(Cc2ccc3ncc(C4CC4)cc3c2)c1` [Example 245, N-((3-chloro-6-fluoro-1H-indol-5-yl)methyl)-2-((3-cyclopropylquinolin-6-yl)methyl)isonicotinamide], the IC50 on human plasma kallikrein was below 100 nM. In assay [1], this compound had an EC50 of 100 to 1000 nM.
For `O=C(NCc1ccc2[nH]cc(Cl)c2c1F)c1ccnc(Cc2ccc3ncc(C(F)(F)F)cc3c2)c1` [Example 234, N-((3-chloro-4-fluoro-1H-indol-5-yl)methyl)-2-((3-(trifluoromethyl)quinolin-6-yl)methyl)isonicotinamide], the IC50 at human plasma kallikrein is below 100 nM. In addition, the EC50 in assay [1] was 100 to 1000 nM.
The matching figures for `Cc1cnc2c(S(N)(=O)=O)cc(Cc3cc(C(=O)NCc4ccc5[nH]cc(Cl)c5c4F)ccn3)cc2c1` [Example 290, N-((3-chloro-4-fluoro-1H-indol-5-yl)methyl)-2-((3-methyl-8-sulfamoylquinolin-6-yl)methyl)isonicotinamide]: below 100 nM and 100 to 1000 nM.
For `Cc1cc(N)nc(C)c1CNC(=O)c1ccnc(C(N)c2ccc3ncc(Cl)cc3c2)c1` (stereo not drawn) [Example 276, 2-[Amino-(3-chloro-quinolin-6-yl)-methyl]-N-(6-amino-2,4-dimethyl-pyridin-3-ylmethyl)-isonicotinamide], in that order: below 100 nM and 100 to 1000 nM.
The matching figures for `Cc1cc(N)nc(C)c1CNC(=O)c1ccnc(Cc2ccc3ncc(C4CC4)cc3c2)c1` [Example 243, N-((6-amino-2,4-dimethylpyridin-3-yl)methyl)-2-((3-cyclopropylquinolin-6-yl)methyl)isonicotinamide]: below 100 nM and below 100 nM.
`CC(C)(O)c1cc(Cc2cc(C(=O)NCc3n[nH]c4ccc(Cl)cc34)ccn2)cc2cc(Cl)cnc12` [Example 225, N-((5-chloro-1H-indazol-3-yl)methyl)-2-((3-chloro-8-(2-hydroxypropan-2-yl)quinolin-6-yl)methyl)isonicotinamide]: on human plasma kallikrein, the IC50 is below 100 nM. For the same compound, in assay [1], the EC50 was 100 to 1000 nM.
Take `Cc1cnc2c(S(N)(=O)=O)cc(Cc3cc(C(=O)NCc4ccc5c(N)nccc5c4)ccn3)cc2c1` [Example 289, N-((1-aminoisoquinolin-6-yl)methyl)-2-((3-methyl-8-sulfamoylquinolin-6-yl)methyl)isonicotinamide]: the IC50 at human plasma kallikrein is below 100 nM. This compound also came in with an EC50 in assay [1] below 100 nM.
As to `Cc1nc(N)ccc1CNC(=O)c1ccnc(Cc2cc(C(C)(C)O)c3ncc(Cl)cc3c2)c1` [Example 220, N-((6-amino-2-methylpyridin-3-yl)methyl)-2-((3-chloro-8-(2-hydroxypropan-2-yl)quinolin-6-yl)methyl)isonicotinamide], the IC50 on human plasma kallikrein was below 100 nM. In addition, the EC50 in assay [1] was below 100 nM.
Turning to `Cc1cc(N)nc(C)c1CNC(=O)c1cc(CO)nc(Cc2ccc3ncc(Cl)cc3c2)c1` [Example 212, N-((6-amino-2,4-dimethylpyridin-3-yl)methyl)-2-((3-chloroquinolin-6-yl)methyl)-6-(hydroxymethyl)isonicotinamide], the half-maximal inhibitory concentration (IC50) on human plasma kallikrein is below 100 nM. The same compound had an EC50 in assay [1] below 100 nM.
For the compound `Cc1cc(N)nc(C)c1CNC(=O)c1ccnc(Cc2cc3cc(Cl)cn3cn2)c1` [Example 153, N-((6-amino-2,4-dimethylpyridin-3-yl)methyl)-2-((6-chloropyrrolo[1,2-c]pyrimidin-3-yl)methyl)isonicotinamide], the IC50 on human plasma kallikrein was below 100 nM. Further, in assay [1], the EC50 was below 100 nM.
As for `Cc1ccn2cnc(CNC(=O)c3ccnc(Cc4ccc5ncc(Cl)cc5c4)c3)c2c1` [Example 156, 2-((3-chloroquinolin-6-yl)methyl)-N-((7-methylimidazo[1,5-a]pyridin-1-yl)methyl)isonicotinamide], the IC50 on human plasma kallikrein is below 100 nM. Moreover, in assay [1], the EC50 is 100 to 1000 nM.
For the compound `Cc1nc(N)ccc1CNC(=O)c1ccnc(Cc2ccc3ncc(CC(F)F)cc3c2)c1` [Example 279, N-((6-amino-2-methylpyridin-3-yl)methyl)-2-((3-(2,2-difluoroethyl)quinolin-6-yl)methyl)isonicotinamide], the IC50 at human plasma kallikrein is below 100 nM. The EC50 in assay [1] lay in the range of 100 to 1000 nM.
Turning to `Cc1nc2c(c(C)c1CNC(=O)c1ccnc(Cc3ccc4ncc(C(F)(F)F)cc4c3)c1)CCN2` [Example 176, N-((4,6-dimethyl-2,3-dihydro-1H-pyrrolo[2,3-b]pyridin-5-yl)methyl)-2-((3-(trifluoromethyl)quinolin-6-yl)methyl)isonicotinamide], the IC50 at human plasma kallikrein was below 100 nM. The EC50 in assay [1] lay in the range of 100 to 1000 nM.
For `Cc1cc(N)nc(C)c1CNC(=O)c1ccnc(Cc2ccc3nc(C)c(Cl)cc3c2)c1` [Example 238, N-((6-amino-2,4-dimethylpyridin-3-yl)methyl)-2-((3-chloro-2-methylquinolin-6-yl)methyl)isonicotinamide], in that order: below 100 nM and below 100 nM.
Turning to `Cc1cc(N)nc(C)c1CNC(=O)c1ccnc(Cc2ccc3ncc(C(F)(F)F)cc3c2)c1` [Example 228, N-((6-amino-2,4-dimethylpyridin-3-yl)methyl)-2-((3-(trifluoromethyl)quinolin-6-yl)methyl)isonicotinamide], on human plasma kallikrein, the IC50 was below 100 nM. Also, in assay [1], the EC50 was below 100 nM.
As to `Nc1nccc2cc(CNC(=O)c3ccnc(Cc4ccc5ncc(Cl)cc5c4)c3)c(F)cc12` [Example 180, N-((1-amino-7-fluoroisoquinolin-6-yl)methyl)-2-((3-chloroquinolin-6-yl)methyl)isonicotinamide], the 50% inhibitory concentration (IC50) at human plasma kallikrein is below 100 nM. Also, the EC50 in assay [1] was in the range of 100 to 1000 nM.
The matching figures for `Cc1cnc2c(S(N)(=O)=O)cc(Cc3cc(C(=O)NCc4cnc5[nH]cc(Cl)c5c4)ccn3)cc2c1` [Example 291, N-((3-chloro-1H-pyrrolo[2,3-b]pyridin-5-yl)methyl)-2-((3-methyl-8-sulfamoylquinolin-6-yl)methyl)isonicotinamide]: below 100 nM and below 100 nM.
The matching figures for `Cc1cc(N)nc(C)c1CNC(=O)c1cc(CN)nc(Cc2ccc3ncc(Cl)cc3c2)c1` [Example 211, N-((6-amino-2,4-dimethylpyridin-3-yl)methyl)-2-(aminomethyl)-6-((3-chloroquinolin-6-yl)methyl)isonicotinamide]: below 100 nM and below 100 nM.
For `Cc1cc(N)nc(C)c1CNC(=O)c1ccnc(Cc2cc3cc(C(F)(F)F)cnc3[nH]2)c1` [Example 215, N-((6-amino-2,4-dimethylpyridin-3-yl)methyl)-2-((5-(trifluoromethyl)-1H-pyrrolo[2,3-b]pyridin-2-yl)methyl)isonicotinamide], in that order: below 100 nM and 100 to 1000 nM.
Regarding `CC(C)(O)c1cc(Cc2cc(C(=O)NCc3ccc4c(N)nccc4c3)ccn2)cc2cc(Cl)cnc12` [Example 224, N-((1-aminoisoquinolin-6-yl)methyl)-2-((3-chloro-8-(2-hydroxypropan-2-yl)quinolin-6-yl)methyl)isonicotinamide], the IC50 on human plasma kallikrein is below 100 nM. In assay [1], this compound returned an EC50 below 100 nM.
For the compound `Cc1cc(N)nc(C)c1CNC(=O)c1cc(Cc2ccc3ncc(Cl)cc3c2)nc(C(C)(C)O)c1` [Example 210, N-((6-amino-2,4-dimethylpyridin-3-yl)methyl)-2-((3-chloroquinolin-6-yl)methyl)-6-(2-hydroxypropan-2-yl)isonicotinamide], the IC50 at human plasma kallikrein is below 100 nM. In assay [1], the EC50 is below 100 nM.
